Assay results from paper PMC12463120, “Phenylalanine‐Based DNA‐Encoded Chemical Libraries for the Discovery of Potent and Selective Small Organic Ligands Against Markers of Cancer and Immune Cells” (Advanced Science, 2025).
pKd: −log10 of the molar value.

What was measured:
human CAIX (hCAIX) = biological target: T1, human CAIX (hCAIX) (Homo sapiens, UniProt Q16790); assay: Fluorescence polarization (FP) affinity against hCAIX; type: binding; settings: fluorescein derivatives
T1 construct: made in house; host or cells: CHO cells
Method: Affinities of fluorescein‐bearing hits were determined by FP or ELISA measurements.
2.11 Fluorescence polarization (FP) measurements with fluoresceine-labelled
A dilution series of target proteins (i.e., PSMA, GCP3, CAIX, CAII) in the respective formulation buffer were separately prepared in a black 384-well plate (non-binding Greiner small volume plate). Test compounds functionalized with fluorescein were diluted to a concentration between 5 and 10 nM (5 μL) and incubated for 15 min with the protein (final volume corresponding to 10 µL). The fluorophore was excited at 485 nm, and anisotropy was measured at 535 nm on a Spectra Max Paradigm multimode plate reader (Tecan). The experiments were performed in triplicate. KD values measured using this FP method can differ from dissociation constants obtained by other physical methods (e.g., surface plasmon resonance, see section below).

hCAIX = biological target: T2, hCAIX (Homo sapiens, UniProt Q16790); assay: Surface plasmon resonance (SPR) on hCAIX; type: binding; settings: for pKd: 500 nM to 250 nM, CM5 chip
T2 construct: made in house; host or cells: CHO cells
Method: 2.14 Surface plasmon resonance (SPR)
SPR measurements were performed on a Biacore X100. Human recombinant ACP3 or CAIX were immobilized on a CM5 chip (Cytiva, #BR100012, both flow cells), reaching ~4000 RUs, using the EDC/NHS protocol provided by the manufacturer. The target protein immobilized on the reference flow cell was treated with denaturing solution (0.85% H3PO4, 10 mM NaOH, and 50 mM HCl). PBS (pH 7.4) was used as running buffer. Test compounds were injected at different concentrations in running buffer, according to a multicycle analysis with the following settings: 120 seconds contact time and 5´000 seconds (CAIX measurements) or 15´ 000 seconds (ACP3 measurements) dissociation time at a flow rate of 10 μL/min. Sensograms were plotted with GraphPad Prism (version 9, GraphPad Software) and fitted using the Biacore X100 Evaluation Software. […]
30 min at rt and washed with PBS (3 x 200 μL/well). The immobilized protein was incubated for 30 min in the dark with serial dilution of FITC-labelled compounds and washed with PBS (3 x 200 μL/well). A solution of rabbit polyclonal FITC antibody-horseradish peroxidase (anti-FITC-HRP, Abcam, #ab196968) 0.25 μg/mL in 2% milk-PBS was added to each well (100 μL/well) and incubated for additional 30 min in the dark at rt. Each well was washed with PBS 0.1% Tween (3 x 200 μL/ well) and with PBS (3 x 200 μL/ well). The substrate 3,3′,5,5′ -tetramethylbenzidine (TMB, Sigma Aldrich #T0440) was added (100 μL /well) and developed in the dark for 0.5-1 min. The reaction was stopped by adding 50 μL of an aqueous solution of H2SO4 1M. The absorbance was measured at 450 nm (reference level, 620–650 nm) with a Spark multimode microplate reader (Tecan Life Sciences). The experiments were […]

| Structure (SMILES) | pKd (human CAIX (hCAIX)) | association rate (kon) on hCAIX by SPR (hCAIX) | pKd (hCAIX) | dissociation rate (koff) on hCAIX by SPR (hCAIX) |
| --- | --- | --- | --- | --- |
| NS(=O)(=O)c1ccc(-c2cccc(C[C@H](NC(=O)CCC(=O)N[C@@H](CCCCNC(=S)Nc3ccc4c(c3)C(=O)OC43c4ccc(O)cc4Oc4cc(O)ccc43)C(=O)O)C(=O)NCC3(c4cccs4)CCOCC3)c2)cc1 [compound 20] | 8.61 | – | – | – |
| NS(=O)(=O)c1ccc(-c2cccc(C[C@@H](NC(=O)CCC(=O)N[C@@H](CCCCNC(=O)CC[C@H](C(=O)O)N3CCN(CC(=O)O)CCN(CC(=O)O)CCN(CC(=O)O)CC3)C(=O)O)C(=O)NCC3(c4cccs4)CCOCC3)c2)cc1 [compound 22] | – | fast association rates | 7.30 | – |
| NS(=O)(=O)c1nnc(Nc2cccc(C[C@H](NC(=O)CCC(=O)N[C@@H](CCCCNC(=S)Nc3ccc4c(c3)C(=O)OC43c4ccc(O)cc4Oc4cc(O)ccc43)C(=O)O)C(=O)NCC3(c4cccs4)CCOCC3)c2)s1 [compound 23] | 8.69 | – | – | – |
| NS(=O)(=O)c1nnc(Nc2cccc(C[C@@H](NC(=O)CCC(=O)N[C@@H](CCCCNC(=O)CC[C@H](C(=O)O)N3CCN(CC(=O)O)CCN(CC(=O)O)CCN(CC(=O)O)CC3)C(=O)O)C(=O)NCC3(c4cccs4)CCOCC3)c2)s1 [compound 25] | – | fast association rates | 7.89 | slower dissociation rate |
